Measurements taken from US9896491B2, “Composition for treatment of multiple sclerosis” (LIFEBIO LABORATORIES LLC, priority 2009, dated 2018).
Like-named read-outs stand apart in the source and are kept apart here.

Tests used:
ESAMBPCAA [1] = experiment: ESAMBPCAA mediated MBP hydrolysis in serum samples of progressive MS patients in presence of test substances; type: biochemical, human; details: for suppressive effect on MBP-specific auto antibody mediated hydrolysis: 100 nM, summary of Table 3; for MBP-specific auto antibody mediated hydrolysis: test substance 100 nM
Experimental: (§1) MBP hydrolysis by anti MBP auto antibodies was assayed as follows: Purified antibodies (0.1-1 μg) were incubated at 37° C. for 14 h in the final volume of 12.5 μl PBS, 0.02% NaN3 containing 1-2 μg of MBP. The samples were mixed with Laemmli's buffer. The extent of MBP degradation was visualized by SDS-PAGE in Tris-glycine and Tricine buffer systems. For quantitative MBP degradation assay, MBP (10 μM) was incubated at 37° C. with antibodies (60 nM) in 0.1 ml of PBS, 0.02% NaN3 for 12 h. The reaction was stopped by adding 10% TFA up to pH 2.5. The samples were further chromatographed on column C4 4.0/150 (Waters). The amount of non-cleaved MBP was calculated by absorbance monitoring at 280 nm.
Serum samples collected from 5 patients suffering from progressive MS were quantified for ESAMBPCAA mediated MBP hydrolysis as specified in Example 1 in presence of following substances: […]

ESAMBPCAA [2] = experiment: ESAMBPCAA mediated MBP hydrolysis in serum of treated EAE DA rats; type: in vivo; details: days 8-12; for rates of MBP-specific auto antibody mediated hydrolysis: 120 μg daily intranasal, median for 6 animals; for suppression of MBP-specific auto antibody mediated hydrolysis: intranasal, dose-dependent for SEQ ID NO: 2
[3] = test system: Experimental Allergic Encephalomyelitis (EAE) in DA rats; experiment: MDS score in EAE DA rats; type: in vivo; details: intranasal, days 8-12; FIG. 4; dose-dependent for SEQ ID NO: 2
[4] = test system: progressive multiple sclerosis patients; details: 500 mg intravenously every six months; cited from earlier work
ESAMBPCAA [5] = experiment: ESAMBPCAA mediated MBP hydrolysis in serum of treated TMEV-infected SJL mice; type: in vivo; details: days 14-24
Experimental: as §1
(§2) The BeAn strain of TMEV used in this study was generated and propagated in BHK-21 cells grown in Dulbecco's modified Eagle's medium supplemented with 7.5% donor calf serum. For i.c. infection, 30 μl of virus solution (0.2×10^6 to 6×10^6 PFU) was injected into the right cerebral hemisphere of 6- to 8-week-old SJL mice (8 animals per group) anesthetized with isoflurane. Clinical symptoms (MDS score) of disease were assessed weekly on the following grading scale: grade 0, no clinical signs; grade 1, mild waddling gait or flaccid tail; grade 2, severe waddling gait; grade 3, moderate hind limb paresis; and grade 4, severe hind limb paralysis. Serum samples collected from animals were quantified for ESAMBPCAA mediated MBP hydrolysis as specified in Example 1
(§3) At day 14 following infection mice were divided into 6 groups ([…]) and treated during 10 days (days 14-24) according following schedule: […]

[6] = test system: Experimental MS (Theiler's Virus Infection) in SJL mice; experiment: Experimental MS (Theiler's Virus Infection): disease manifestation and MDS score; type: in vivo; details: days 14-24; for % Animals affected with disease at day 100: 30 mice per group
Experimental: as §2, §3

[7] = test system: Experimental Allergic Encephalomyelitis (EAE) in Dark Agouti (DA) Rats; experiment: EAE induced by MBP 63-81 in DA rats: clinical signs score; type: in vivo; details: for therapeutic effect: 150 μg/rat/day SC during 6 days; for Clinical signs score on day 23 after induction (mean): 150 μg/rat/day SC during 6 days from day 9-11 after EAE induction, score 0-5
Experimental: Female Dark Agouti (DA) Rats, 8-9 weeks of age, about 110-145 g of weight were used as test animals.
For induction of Experimental Allergic Encephalomyelitis (EAE), rats were injected intradermally at the base of the tail with a total volume of 200 μl of inoculum containing 50 μg of MBP 63-81 (ANASPEC), in saline mixed (1:1) with Complete Freund Adjuvant, (IFA, Sigma), and 1 mg killed M. tuberculosis strain (strain H37 RA; Difco Laboratories, Detroit, Mich.). Beginning 24 hours after EAE induction the rats were followed up daily. On day 9 after the after EAE induction more than 50% of the rats developed signs of paralysis. The animals with multiple sclerosis signs were separated into 10 groups for beginning of treatment. Prior to treatment, blood was collected from 2 rats from each group. At day 9 and 11 after EAE induction, 90% of rats developed signs of EAE.
9-11 days after EAE induction the animals were divided into 9 groups (5-6 rats in each). Each group of rats was treated subcutaneously once daily with different claimed oligopeptide or theirs combinations (equimolar mix) (150 μg) or doses of positive control item (Glatiramer acetate, Copaxone, Teva) or negative control item (0.9% Sodium chloride solution), during 6 days as follows:
Copaxone, claimed oligopeptide and combinations thereof (Mechanical mix) were diluted with 0.9% Sodium chloride to a concentration of 450 μg/ml. Volume of 0.33 ml (150 μg/rat/day) was injected SC during 6 days.
After 6 days of the injections cycle the animals were maintained and followed up till day 28th post EAE induction. Clinical signs score was performed daily during study periods. Animals were observed individually during all study periods. In cases of extended observation period clinical signs were recorded once daily. Observations included changes in the fur, eyes, respiratory rate, vocalization, paralysis, activity and behavior pattern. Score of paralysis signs related to MS of each animal was done daily (during all study periods).
Score gradation was as follows: 0—Normal; 1—Tail weakness; 2—Hind leg weakness or paralysis; 3—Hind leg paralysis, dragging hind limbs; 4—Complete paralysis, unable to move; 5—Death.

antibodies to MBP = details: in vitro and in vivo (in blood of MS-patients); cited from earlier work
[8] = test system: secondary progressive MS patients; details: phase I; cited from earlier work
[9] = test system: relapsing-remitting multiple sclerosis patients; details: Neurology 1995; 45: 1268; cited from earlier work
CD20+ B lymphocytes = details: relapsing-remitting multiple sclerosis (RRMS) patients; cited from earlier work
[10] = test system: relapsing-remitting multiple sclerosis patients; details: Neurology 1993; 43: 662-7; cited from earlier work
[11] = 20 μg of each oligopeptide daily subcutaneous

For APKRGSGKDSH [A4], the “suppressive effect on MBP-specific auto antibody mediated hydrolysis” value (ESAMBPCAA [1]) was “potent suppressive effect”, the “MBP-specific auto antibody mediated hydrolysis” value (ESAMBPCAA [1]; Patient 1) was 12.1 ± 3.6 pmol/min/nmol and the “MBP-specific auto antibody mediated hydrolysis” value (ESAMBPCAA [1]; Patient 2) was 15.6 ± 2.9 pmol/min/nmol. The “MBP-specific auto antibody mediated hydrolysis” value (ESAMBPCAA [1]; Patient 3) was 14.3 ± 4.4 pmol/min/nmol, the “MBP-specific auto antibody mediated hydrolysis” value (ESAMBPCAA [1]; Patient 4) was 15.8 ± 4.9 pmol/min/nmol and the “MBP-specific auto antibody mediated hydrolysis” value (ESAMBPCAA [1]; Patient 5) was 13.3 ± 5.9 pmol/min/nmol. For the same molecule, the “rates of MBP-specific auto antibody mediated hydrolysis” value (from here on “rates”) (ESAMBPCAA [2]; Day 8 (start of treatment)) was 49.3 ± 4.9 pmol/min/nmol, the “rates” value (ESAMBPCAA [2]; Day 16) was 45.9 ± 7.1 pmol/min/nmol and the “rates” value (ESAMBPCAA [2]; Day 24) was 45.1 ± 6.3 pmol/min/nmol. The “suppression of MBP-specific auto antibody mediated hydrolysis” value (ESAMBPCAA [2]) was “active in suppression” and the “suppression of MDS score” value [3] was “active in suppression”.

In the case of “DENPVVHFFKNIVTPRT [MBP8298, synthetic peptide, amino acid residues 82-98 of MBP]”, the “responders on the treatment” value [4] is given as “responders on the treatment with MBP8298 are the patients with HLA heliotypes DR2 and/or DR4 only”.

In the case of GFGYGGRASDYKSAHK [SEQ ID NO: 3], the “ESAMBPCAA activity at day 100” value (ESAMBPCAA [5]; [11]) is reported as 40 ± 3.1 pmol/min/nmol, the “suppression of MBP-specific auto antibody mediated hydrolysis” value (ESAMBPCAA [5]; [11]) is reported as “do not affect” and the therapeutic effect [6, 11] is reported as “moderate therapeutic effect”. For the same molecule, the “% Animals affected with disease at day 100” value (“% Animals affected” below) [6, 11] was 25(30) %, the therapeutic effect [7] was “moderate therapeutic effect” and the “Clinical signs score on day 23 after induction (mean)” value (from here on “Clinical signs score”) [7] was 0.9.

For “MBP 35-58: non-binding, control peptide, human MBP 35-58 (LSRTTSEDNEVFGEADANQNNGTS; UniProt P02686 35-58, looked up, fragment)”, the “effect on free and bound antibodies to MBP” value (antibodies to MBP) is listed as “no effect”.

In the case of “MBP 75-95: soluble synthetic peptide, residues 75-95 of human MBP (WO 98/45327) (NAWQDAHPADPGSRPHLIRLF; UniProt P02686 75-95, looked up, fragment)”, the “effect on free and bound antibodies to MBP” value (antibodies to MBP) is listed as “showed its ability to bound free antibodies to MBP both in vitro and in vivo”.

In the case of “MBP 84-102: MBP 84-102 fragment (U.S. Pat. No. 5,858,980) (DPGSRPHLIRLFSRDAPGR; UniProt P02686 84-102, looked up, fragment)”, the “treatment efficacy (Expanded Disability Status Scale, Nine Hole Peg Test, new lesions by Magnetic Resonance Imaging)” value [8] is listed as “No treatment efficacy were detected”.

With QGTLSKIFKLGGRDSRSGSPMARR [SEQ ID NO: 4] the “ESAMBPCAA activity at day 100” value (ESAMBPCAA [5]; [11]) was 35.3 ± 5.1 pmol/min/nmol, the “suppression of MBP-specific auto antibody mediated hydrolysis” value (ESAMBPCAA [5]; [11]) was “do not affect” and the therapeutic effect [6, 11] was “moderate therapeutic effect”. The “% Animals affected” value [6, 11] was 27(30) %, the therapeutic effect [7] was “moderate therapeutic effect” and the “Clinical signs score” value [7] was 0.8.

With “RGAPKRGSGKRGAPKRGSGKRGAPKRGSGKRGAPKRGSGKRGAPKRGSGKRGAPKRGSGK [A6]” the “suppressive effect on MBP-specific auto antibody mediated hydrolysis” value (ESAMBPCAA [1]) was “potent suppressive effect”, the “MBP-specific auto antibody mediated hydrolysis” value (ESAMBPCAA [1]; Patient 1) was 7.7 ± 3.3 pmol/min/nmol and the “MBP-specific auto antibody mediated hydrolysis” value (ESAMBPCAA [1]; Patient 2) was 22.3 ± 4.2 pmol/min/nmol. For the same molecule, the “MBP-specific auto antibody mediated hydrolysis” value (ESAMBPCAA [1]; Patient 3) was 20.1 ± 3.9 pmol/min/nmol, the “MBP-specific auto antibody mediated hydrolysis” value (ESAMBPCAA [1]; Patient 4) was 21.5 ± 6.6 pmol/min/nmol and the “MBP-specific auto antibody mediated hydrolysis” value (ESAMBPCAA [1]; Patient 5) was 5.0 ± 1.8 pmol/min/nmol. For the same molecule, the “rates” value (ESAMBPCAA [2]; Day 8 (start of treatment)) was 45.7 ± 6.5 pmol/min/nmol, the “rates” value (ESAMBPCAA [2]; Day 16) was 48.1 ± 7.4 pmol/min/nmol and the “rates” value (ESAMBPCAA [2]; Day 24) was 39.4 ± 4.6 pmol/min/nmol. For the same molecule, the “suppression of MBP-specific auto antibody mediated hydrolysis” value (ESAMBPCAA [2]) was “active in suppression” and the “suppression of MDS score” value [3] was “active in suppression”.

For SGKDS [A5], the “MBP-specific auto antibody mediated hydrolysis” value (ESAMBPCAA [1]; Patient 1) was 57 ± 4.1 pmol/min/nmol, the “MBP-specific auto antibody mediated hydrolysis” value (ESAMBPCAA [1]; Patient 2) was 59.7 ± 5.7 pmol/min/nmol and the “MBP-specific auto antibody mediated hydrolysis” value (ESAMBPCAA [1]; Patient 3) was 44.2 ± 6.6 pmol/min/nmol. The “MBP-specific auto antibody mediated hydrolysis” value (ESAMBPCAA [1]; Patient 4) was 45.5 ± 3.8 pmol/min/nmol and the “MBP-specific auto antibody mediated hydrolysis” value (ESAMBPCAA [1]; Patient 5) was 55.7 ± 6.1 pmol/min/nmol.

In the case of “glatiramer acetate [A2, reference compound]”, the “MBP-specific auto antibody mediated hydrolysis” value (ESAMBPCAA [1]; Patient 1) is reported as 62.5 ± 1.2 pmol/min/nmol, the “MBP-specific auto antibody mediated hydrolysis” value (ESAMBPCAA [1]; Patient 2) is reported as 72.6 ± 7.7 pmol/min/nmol and the “MBP-specific auto antibody mediated hydrolysis” value (ESAMBPCAA [1]; Patient 3) is reported as 51.2 ± 3.5 pmol/min/nmol. The “MBP-specific auto antibody mediated hydrolysis” value (ESAMBPCAA [1]; Patient 4) was 47.7 ± 7.9 pmol/min/nmol, the “MBP-specific auto antibody mediated hydrolysis” value (ESAMBPCAA [1]; Patient 5) was 65.7 ± 5.4 pmol/min/nmol and the “rates” value (ESAMBPCAA [2]; Day 8 (start of treatment)) was 51.4 ± 8.2 pmol/min/nmol. The “rates” value (ESAMBPCAA [2]; Day 16) was 55.4 ± 5.7 pmol/min/nmol, the “rates” value (ESAMBPCAA [2]; Day 24) was 62.2 ± 5.7 pmol/min/nmol and the “ESAMBPCAA activity at day 100” value (ESAMBPCAA [5]; 30 μg daily subcutaneous) was 39.8 ± 4.1 pmol/min/nmol. The “% Animals affected” value ([6]; 30 μg daily subcutaneous) was 25(30) %, the “Clinical signs score” value [7] was 1.1 and the “Adverse Reactions” value [9] was “Low”. For the same molecule, the “Clinical Observations: Decrease of relapse frequency” value [9] was “frequency—29%;”, the “Clinical Observations: EDSS score progression” value [9] was “Slowing EDSS” and the “MRI Data: decrease of active lesions” value [9] was “No statistical”.

For “rituximab: monoclonal antibody, which selectively targets and depletes CD20+ B lymphocytes”, the “safety and efficacy of therapy” value (CD20+ B lymphocytes) is listed as “appears safe and effective to some extend”.

B1: Beta-Interferon: Beta-Interferon, existing standard of MS therapy (protein, UniProt P01574 22-187, looked up, variant C17S)
Interferon beta: MSYNLLGFLQRSSNFQSQKLLWQLNGRLEYCLKDRMNFDIPEEIKQLQQFQKEDAALTIYEMLQNIFAIFRQDSSSTGWNETIVENLLANVYHQINHLKTVLEEKLEKEDFTRGKLMSSLHLKRYYGRILHYLKAKEYSHCAWTIVRVEILRNFYFINRLTGYLRN
modifications: interferon beta-1b, lacks N-terminal Met
notes: Beta-Interferon, existing standard of MS therapy
For B1, the “Adverse Reactions” value [10] is listed as “High”, the “Clinical Observations: Decrease of relapse frequency” value [10] is listed as “frequency—83%;” and the “Clinical Observations: EDSS score progression” value [10] is listed as “No slowing EDSS”. For the same molecule, the “MRI Data: decrease of active lesions” value [10] was 83% decrease.
